± gives the standard deviation of the averaged measurements.
What was measured:
[1] = system: HS-PSS; assay: drug sensitivity score (DSS, CellTiter-Glo viability, 72 h) (DSS (dimensionless)); higher = more sensitive; extreme values may be limits of the assay
Summary of the method: (§1)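 Viability of MPNST cell lines and primary human Schwann cells was read as CellTiter-Glo ATP luminescence after 72 h at 37 °C, 5% CO2, in 384-well plates seeded with 750–1000 cells per well. Each compound had been preprinted at five concentrations in 10-fold steps. Signals were scaled between vehicle and positive-control wells, duplicates averaged where present, and fitted with four-parameter logistic curves. Drug sensitivity score and relative IC50 (censored at the top concentration) come from those fits, and percent inhibition is taken at the top concentration.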

[2] = system: HS-Sch-2; assay: as above
Summary of the method: as §1

[3] = system: HSC1 (primary human Schwann cells); assay: as above
Summary of the method: as §1

[4] = system: HSC2 (primary human Schwann cells); assay: as above
Summary of the method: as §1

[5] = system: S1507-2; assay: as above
Summary of the method: as §1

[6] = system: S462; assay: as above
Summary of the method: as §1

[7] = system: ST8814; assay: as above
Summary of the method: as §1

[8] = system: STS26T; assay: as above
Summary of the method: as §1

[9] = system: YST-1; assay: as above
Summary of the method: as §1

[10] = system: HS-PSS; assay: drug sensitivity score (DSS, CellTox-Green cytotoxicity, 72 h) (DSS (dimensionless)); higher = more cytotoxic; extreme values may be limits of the assay
Summary of the method: (§2)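 MPNST cell lines and primary human Schwann cells were grown for 72 h at 37 °C in 384-well plates containing five 10-fold compound dilutions. CellTox-Green, added before seeding at a final 1:1000 dilution, gave fluorescence from DNA released by disrupted cells, and signals were scaled to vehicle and positive-control wells. Curves were fitted with a four-parameter logistic model. Drug sensitivity score and relative IC50 come from these fits, with IC50 censored at the top concentration.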

[11] = system: HSC1 (primary human Schwann cells); assay: as above
Summary of the method: as §2

[12] = system: HSC2 (primary human Schwann cells); assay: as above
Summary of the method: as §2

[13] = system: S1507-2; assay: as above
Summary of the method: as §2

[14] = system: ST8814; assay: as above
Summary of the method: as §2

[15] = system: STS26T; assay: as above
Summary of the method: as §2

[16] = system: HS-PSS; assay: % inhibition of CellTiter-Glo viability at highest tested concentration (72 h), relative to DMSO and benzethonium chloride controls; higher = more inhibition
Summary of the method: as §1

[17] = system: HS-Sch-2; assay: as above
Summary of the method: as §1

[18] = system: HSC1 (primary human Schwann cells); assay: as above
Summary of the method: as §1

[19] = system: HSC2 (primary human Schwann cells); assay: as above
Summary of the method: as §1

[20] = system: S1507-2; assay: as above
Summary of the method: as §1

[21] = system: S462; assay: as above
Summary of the method: as §1

[22] = system: ST8814; assay: as above
Summary of the method: as §1

[23] = system: STS26T; assay: as above
Summary of the method: as §1

[24] = system: YST-1; assay: as above
Summary of the method: as §1

| Structure (SMILES) | drug sensitivity score [1] | drug sensitivity score [2] | drug sensitivity score [3] | drug sensitivity score [4] | drug sensitivity score [5] | drug sensitivity score [6] | drug sensitivity score [7] | drug sensitivity score [8] | drug sensitivity score [9] | drug sensitivity score [10] | drug sensitivity score [11] | drug sensitivity score [12] | drug sensitivity score [13] | drug sensitivity score [14] | drug sensitivity score [15] | % inhibition [16] [%] | % inhibition [17] [%] | % inhibition [18] [%] | % inhibition [19] [%] | % inhibition [20] [%] | % inhibition [21] [%] | % inhibition [22] [%] | % inhibition [23] [%] | % inhibition [24] [%] |
| --- | --- | --- | --- | --- | --- | --- | --- | --- | --- | --- | --- | --- | --- | --- | --- | --- | --- | --- | --- | --- | --- | --- | --- | --- |
| O=NN(CCCl)C(=O)NC1CCCCC1 [Lomustine] (max concentration tested 10000 nM) | 0 | 0 | 0 | 0 | 0 | 0 | 0 | 0 | 0 | 0 | 0 | 0 | 0 | 0 | 0 | -0.39 | -15 | -0.952 | -3.35 | -7.84 ± 0.87 | -9.57 ± 4 | -8.13 | 0.864 | 0.78 |
| Cn1cnc(-c2cc3nccc(Oc4ccc(NC(=S)NC(=O)Cc5ccccc5)cc4F)c3s2)c1 [MGCD-265] (max concentration tested 10000 nM) | 2.02 | 2.2 | 0.016 | 0.731 | 4.92 ± 1.6 | 2.93 ± 0.53 | 3.47 | 0 | 0.19 | 0 | 0 | 0.0906 | 3.76 ± 5.3 | 0.0251 | 0 | 23.4 | 29.8 | 11 | 21.3 | 40 ± 2.4 | 40.6 ± 5.4 | 29.8 | 11.4 | 16.1 |
| C=CCn1c(=O)c2cnc(Nc3ccc(N4CCN(C)CC4)cc3)nc2n1-c1cccc(C(C)(C)O)n1 [MK1775] (max concentration tested 10000 nM) | 6.59 | 23.8 | 14.4 | 17 | 16.3 ± 1.6 | 24.5 ± 0.65 | 15.8 | 16.4 | 14.7 | 0.11 | 5.21 | 9.17 | 16.1 ± 1.9 | 14.6 | 20.3 | 49.6 | 88.4 | 67.6 | 85.9 | 83.3 ± 2 | 107.2 ± 0.38 | 89.8 | 96.8 | 82.5 |
| O=C(O)CC[C@H]1CC[C@@](c2cc(F)ccc2F)(S(=O)(=O)c2ccc(Cl)cc2)CC1 [MK-0752] (max concentration tested 1000 nM) | 0 | 0 | 1.49 | 1.16 | 0 | 0 | 0 | 0 | 0 | 0 | 0 | 0 | 0.0001 ± 0.00014 | 0 | 0 | 5.19 | 10.9 | 13.4 | 15.4 | -8.17 ± 8.2 | 6.43 ± 3.5 | -3.6 | 4.15 | 4.12 |
| NC1(c2ccc(-c3nc4ccn5c(=O)[nH]nc5c4cc3-c3ccccc3)cc2)CCC1 [MK-2206] (max concentration tested 1000 nM) | 1.05 | 0.49 | 0.083 | 0 | 2.75 ± 0.87 | 0.275 ± 0.12 | 0 | 2.7 | 4.28 | 0 | 0 | 0 | 0 | 0 | 0 | 18 | 13.3 | 11 | -3.64 | 23.8 ± 1.6 | 10.5 ± 1.5 | 2.43 | 29.9 | 46.2 |
| Cc1ccc(NC(=O)c2ccc(CN3CCN(C)CC3)cc2)cc1Nc1nc(-c2cccnc2)cs1 [Masitinib] (max concentration tested 10000 nM) | 7.12 | 5.27 | 3.32 | 3.5 | 7.556 ± 0.038 | 3.78 ± 0.14 | 4.79 | 4.23 | 6.54 | 1.06 | 2.96 | 0.804 | 4.73 ± 0.42 | 4.31 | 3.63 | 83.9 | 97.2 | 65.1 | 54.6 | 96.25 ± 0.36 | 71.4 ± 5.9 | 87.5 | 80.8 | 90.8 |
| Sc1ncnc2nc[nH]c12 [Mercaptopurine] (max concentration tested 10000 nM) | 1.06 | 7.89 | 0 | 0 | 0 | 5.81 ± 1.6 | 10.2 | 7.5 | 0.53 | 0 | 0 | 0 | 0 | 0 | 0.135 | 18.8 | 59.9 | -2.23 | 3.85 | 7.52 ± 1.2 | 62.5 ± 20 | 43.7 | 74.5 | 13.2 |
| CN(Cc1cnc2nc(N)nc(N)c2n1)c1ccc(C(=O)N[C@@H](CCC(=O)O)C(=O)O)cc1 [Methotrexate] (max concentration tested 5000 nM) | 0 | 13.7 | 0 | 0.0797 | 1.24 ± 1.8 | 19.9 ± 4.6 | 6.3 | 25.9 | 6.23 | 0.89 | 0 | 0 | 0 | 0.851 | 4.94 | -5.89 | 58.8 | 3.1 | 13.5 | -2.04 ± 33 | 70.2 ± 8.4 | 38.2 | 62.5 | 24.6 |
| C[C@H]1C[C@@H]2[C@H]([C@@H](O)C[C@@]3(C)[C@H]2CC[C@]3(O)C(=O)CO)[C@@]2(C)C=CC(=O)C=C12 [Methylprednisolone] (max concentration tested 10000 nM) | 0 | 0.61 | 0 | 0 | 3.26 ± 4.4 | 0 | 4.82 | 0 | 0.96 | 0 | 0 | 0 | 0 | 0 | 0 | 3.22 | 7.62 | 7.99 | 3.94 | 17.3 ± 7 | 4.77 ± 4.3 | 22.4 | 4.35 | 19.3 |
| CO[C@H]1[C@@H](N(C)C(=O)c2ccccc2)C[C@@H]2O[C@@]1(C)n1c3ccccc3c3c4c(c5c6ccccc6n2c5c31)C(=O)NC4 [Midostaurin] (max concentration tested 10000 nM) | 9.08 | 12.2 | 21.6 | 20.7 | 16.5 ± 1.1 | 10.7 ± 0.49 | 13.9 | 11.5 | 11.4 | 0 | 11.9 | 19.4 | 6.96 ± 1.9 | 11.1 | 13.4 | 56.4 | 73.6 | 93.2 | 95.5 | 90.3 ± 1 | 71.9 ± 4.6 | 85.2 | 71.8 | 52.8 |
| CO[C@@]12[C@H](COC(N)=O)C3=C(C(=O)C(C)=C(N)C3=O)N1C[C@@H]1N[C@@H]12 [Mitomycin C] (max concentration tested 10000 nM) | 0.31 | 0.9 | 2.63 | 2.34 | 3.18 ± 0.05 | 3.23 ± 0.21 | 3.61 | 2.31 | 4.11 | 0 | 2.29 | 2.91 | 2.38 ± 3 | 5.46 | 1.57 | 16.2 | 28.5 | 52.1 | 51.3 | 69.5 ± 1.9 | 68.5 ± 1.9 | 77.4 | 50.2 | 55.7 |
| Clc1ccc(C(c2ccccc2Cl)C(Cl)Cl)cc1 (configuration not stated) [Mitotane] (max concentration tested 10000 nM) | 0 | 0 | 0 | 0 | 0 | 0 | 0 | 0 | 0 | 0 | 0 | 0 | 3.77 ± 5.3 | 0 | 0 | -3.05 | 1.46 | 4.91 | 1.58 | 2.14 ± 4.9 | 2.7 ± 7.9 | 6.22 | 4.66 | 0.23 |
| O=C1c2c(O)ccc(O)c2C(=O)c2c(NCCNCCO)ccc(NCCNCCO)c21 [Mitoxantrone] (max concentration tested 1000 nM) | 1.94 | 4.38 | 2.89 | 5.2 | 2.8 ± 1.2 | 5.57 ± 0.84 | 2.63 | 2.45 | 10.7 | 0 | 0 | 0 | 0 | 1.65 | 1.34 | 28.8 | 42.7 | 37.8 | 43 | 43.44 ± 0.12 | 72.66 ± 0.27 | 46.7 | 53.5 | 77 |

Source: the supplement of paper PMC5579334
